Here are results for 13 compounds from US7655756B2 (Johnson & Johnson Pharmaceutical Research & Development, LLC, priority 2005, dated 2010).

Read-outs that look alike come from different tables or passages of the source.

For one assay, the target named is ERβ (Homo sapiens, UniProt Q92731). The assay can be described thus: ThermoFluor thermal shift assay, ERβ. The format is binding. The following applies: for Kd: calculated at reference temperature 25 °C from ΔTm of Table II, ΔHu 122 kcal/mol, read-out: Estimated dissociation constant, ERγ.
Sequence of ERβ (Q92731 whole entry, species assumed): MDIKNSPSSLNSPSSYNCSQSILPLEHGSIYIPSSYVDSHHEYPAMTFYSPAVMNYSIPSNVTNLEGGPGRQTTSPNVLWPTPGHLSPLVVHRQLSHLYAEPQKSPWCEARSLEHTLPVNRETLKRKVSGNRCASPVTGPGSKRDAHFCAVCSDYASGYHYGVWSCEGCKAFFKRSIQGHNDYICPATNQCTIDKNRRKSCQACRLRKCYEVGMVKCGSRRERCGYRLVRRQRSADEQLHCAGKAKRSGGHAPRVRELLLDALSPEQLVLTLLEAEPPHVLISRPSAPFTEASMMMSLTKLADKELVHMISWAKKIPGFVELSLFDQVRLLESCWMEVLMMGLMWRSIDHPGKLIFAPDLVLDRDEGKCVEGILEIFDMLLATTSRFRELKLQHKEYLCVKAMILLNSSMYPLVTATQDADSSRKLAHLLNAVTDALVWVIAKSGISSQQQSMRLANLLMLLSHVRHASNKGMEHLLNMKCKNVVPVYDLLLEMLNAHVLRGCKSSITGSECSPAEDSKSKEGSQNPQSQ
For the next assay, the target named is T1, ERRβ (Homo sapiens, UniProt O95718).
T1 sequence (O95718 208-432 limits assumed): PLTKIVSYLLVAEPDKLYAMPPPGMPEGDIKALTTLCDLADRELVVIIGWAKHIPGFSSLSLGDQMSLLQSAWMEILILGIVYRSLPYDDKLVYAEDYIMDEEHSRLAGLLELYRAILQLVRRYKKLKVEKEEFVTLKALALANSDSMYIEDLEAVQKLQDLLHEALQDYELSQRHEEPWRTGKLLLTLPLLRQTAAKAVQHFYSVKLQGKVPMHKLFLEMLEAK
The assay can be described thus: ThermoFluor thermal shift assay, ERRβ. In kind it is binding. To be noted: for ΔTm, thermal stabilization of ERRβ / ΔTm at 100 µM: 100 μM test compound, 0.1 mg/mL protein, 25 mM HEPES pH 8.0, Tm free protein 47.5 °C; for ΔTm at 100 µM: read-out: ΔTm, thermal stabilization of ERRβ; for Kd: read-out: Estimated dissociation constant, ERRβ.

Assay [1] concerns the target T2, ligand binding domain of ERRγ (Homo sapiens, UniProt P62508).
T2 construct: 6His; made in house; host or cells: E. coli BL21(DE3)
T2 sequence (P62508 229-458): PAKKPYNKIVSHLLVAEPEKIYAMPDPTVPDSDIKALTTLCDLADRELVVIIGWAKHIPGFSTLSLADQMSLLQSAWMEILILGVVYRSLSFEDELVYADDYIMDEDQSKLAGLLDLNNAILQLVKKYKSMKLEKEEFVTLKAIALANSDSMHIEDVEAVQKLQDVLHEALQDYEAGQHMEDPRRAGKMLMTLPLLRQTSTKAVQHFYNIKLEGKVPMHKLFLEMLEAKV
The assay can be described thus: ThermoFluor thermal shift assay, ERRγ ligand binding domain. To be noted: for ΔTm, thermal stabilization of ERRγ / ΔTm at 100 µM: 100 μM test compound, 0.1 mg/mL protein, 25 mM HEPES pH 8.0, Tm free protein 49.6 °C; for ΔTm at 100 µM: read-out: ΔTm, thermal stabilization of ERRγ; for Kd: read-out: Estimated dissociation constant, ERRγ. As to the method:
The vector was in E. coli BL21(DE3) and cultured in Minimal media (M9) at 37° C. to an OD595 0.6-0.8, followed by induction at 15° C. with 0.4 mM IPTG for 20 hours. The next day, the culture was harvested and lysed in buffer A (Buffer A: 20 mM Tris-HCl, pH 7.5, 0.4 M NaCl and 5 mM Imidazole) using an Emulsiflex-C5 french press (Avestin). Lysates were spun at 40,000×g for 45 minutes to remove insoluble material. The clarified lysate was applied on a Ni-NTA column and eluted with a linear gradient of imidazole. The protein was further purified by applying the eluent on a Superdex 200 HR 10/30 column (Amersham Pharmacia Biotech) equilibrated with Buffer B (Buffer B: 20 mM Tris-HCl pH 7.5, 0.2M NaCl, 1 mM EDTA and 1 mM DTT). […] Fractions were pulled and concentrated to 4 mg/ml and frozen in liquid nitrogen and stored at −80° C.
The ligand binding domain of ERRγ was screened against a library of known estrogen activators and a generic drug library using ThermoFluor®. ThermoFluor® is a miniaturized thermal shift assay, that has been developed for HTS applications; as a secondary assay for confirmation and characterization of hits; and as a functional assay to characterize orphan proteins. ThermoFluor® exploits the well-described phenomenon of ligand induced stabilization of macromolecules. Ligand binding energy adds directly to the ground state energy of a macromolecule and results in increased thermal stability. The degree of stabilization is proportional to the binding affinity of the ligand for the macromolecule.
Assay plates were prepared by dispensing 2 μL of a protein-dye solution and 2 μL of the test compound in a 384-well plate. […] Finally 1 μL of mineral oil was dispensed on top to prevent evaporation during the high throughput screen (HTS). ThermoFluor® is an HTS assay that measures protein unfolding based on fluorescence detection of the denatured form of the protein. The reporter for the protein unfolding event is the environmentally sensitive dye ANS that is incorporated in the screening buffer. During a typical experiment the 384-well plate is heated at a ramping rate of 1° C./min and the thermal unfolding of the protein is monitored at 1° C. intervals by measuring fluorescence changes detected through a CCD camera. Captured images are integrated and a melting curve is generated that relates fluorescence to fraction of unfolded protein as a function of temperature. […] Hits were identified from the screen by measuring an increase in the melting temperature of the protein.
In order to estimate binding affinities, it was taken into account that the oligomeric state of ERRγ which is a dimer (N2), and that of a single ligand (Lf) can interact per monomer subunit with equal affinity. The melting curve for such a system is described by the following three equilibria:
To compare dissociation constants at a common reference temperature, Tref, the following equation was used: […]
In the thermodynamic treatment of the data the following assumptions were made: i) the small ligand interacts only with the folded state of the protein, ii) the reactions are reversible; iii) the unfolding protein reaction is a two-state process and iv) ideal dilute solutions are being used (specific activity for protein and ligands is equal to 1).

Another assay addresses T3, ERRα (Homo sapiens, UniProt P11474).
T3 sequence (P11474 193-421 limits assumed): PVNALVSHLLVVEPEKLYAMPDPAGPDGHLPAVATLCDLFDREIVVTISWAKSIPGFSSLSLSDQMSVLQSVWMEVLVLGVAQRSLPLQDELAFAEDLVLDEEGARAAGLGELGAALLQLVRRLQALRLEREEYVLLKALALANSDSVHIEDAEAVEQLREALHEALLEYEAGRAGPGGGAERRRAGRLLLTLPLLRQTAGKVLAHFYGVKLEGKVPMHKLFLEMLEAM
The assay can be described thus: ThermoFluor thermal shift assay, ERRα. To be noted: for ΔTm, thermal stabilization of ERRα / ΔTm at 100 µM: 100 μM test compound, 0.1 mg/mL protein, 25 mM HEPES pH 8.0, 25 μM ANS, 2% DMSO, Tm free protein 54.4 °C; for ΔTm at 100 µM: read-out: ΔTm, thermal stabilization of ERRα. In kind it is binding. On the technique in general: Differential scanning fluorimetry follows unfolding on heating by fluorescence.

A further assay deals with T4, ERα (Homo sapiens, UniProt P03372).
T4 sequence (P03372 1-595): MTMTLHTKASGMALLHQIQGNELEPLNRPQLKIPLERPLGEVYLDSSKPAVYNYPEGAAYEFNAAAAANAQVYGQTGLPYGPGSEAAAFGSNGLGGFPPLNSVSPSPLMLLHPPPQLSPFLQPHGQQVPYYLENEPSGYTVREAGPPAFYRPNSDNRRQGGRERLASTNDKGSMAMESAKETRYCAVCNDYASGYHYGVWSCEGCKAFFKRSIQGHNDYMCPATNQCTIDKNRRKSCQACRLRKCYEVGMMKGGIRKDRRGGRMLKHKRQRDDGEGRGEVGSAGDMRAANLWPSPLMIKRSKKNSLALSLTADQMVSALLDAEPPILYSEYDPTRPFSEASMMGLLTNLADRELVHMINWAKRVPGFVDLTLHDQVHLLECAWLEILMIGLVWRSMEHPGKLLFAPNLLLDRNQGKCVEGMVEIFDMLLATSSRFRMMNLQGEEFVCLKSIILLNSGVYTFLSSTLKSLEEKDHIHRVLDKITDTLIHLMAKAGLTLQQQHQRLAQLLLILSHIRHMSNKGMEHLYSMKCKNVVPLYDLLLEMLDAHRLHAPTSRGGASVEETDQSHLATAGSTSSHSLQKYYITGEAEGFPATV
The assay can be described thus: ThermoFluor thermal shift assay, ERα. The format is binding.

The mark [2] stands for this setting: 100 μM test compound, 0.1 mg/mL protein, 25 mM HEPES pH 8.0, Tm free protein 41.1 °C, read-out: ΔTm, thermal stabilization of ERβ.
Where [3] appears, read: 100 μM test compound, 0.1 mg/mL protein, 25 mM HEPES pH 8.0, Tm free protein 39.1 °C, read-out: ΔTm, thermal stabilization of ERα.
[4] abbreviates: 100 μM test compound, 0.1 mg/mL protein, 25 mM HEPES pH 8.0, Tm free protein 41.1 °C.
Setting [5] is: 100 μM test compound, 0.1 mg/mL protein, 25 mM HEPES pH 8.0, Tm free protein 39.1 °C.
The mark [6] stands for this setting: calculated at reference temperature 25 °C from ΔTm of Table II, ΔHu 112 kcal/mol, read-out: Estimated dissociation constant, ERα.

In the case of `O=C(c1ccc(OCCN2CCCCC2)cc1)c1c(-c2ccc(O)cc2)sc2cc(O)ccc12` [raloxifene], the ΔTm at 100 µM at ERβ (setting [2]) was 11.9 °C.

In the case of `Oc1ccc(/C=C/c2cc(O)cc(O)c2)cc1` [resvesterol], on ERRβ, the “ΔTm, thermal stabilization of ERRβ” value was found to be 0.2 °C. Also, the “ΔTm, thermal stabilization of ERRγ” value in assay [1] worked out at 0.4 °C. Further, the “ΔTm, thermal stabilization of ERRα” value on ERRα came to 0.0 °C.

With `C[C@]12CC[C@@H]3c4ccc(O)cc4CC[C@H]3[C@@H]1CC[C@H]2O` [17-α-estradiol], the “ΔTm, thermal stabilization of ERRβ” value at ERRβ is 0.0 °C. Also, the “ΔTm, thermal stabilization of ERRγ” value in assay [1] stood at 1.3 °C.

For `CCc1cc(O)ccc1Cl` [4chloro-3ethyl-phenol], the ΔTm at 100 µM at ERRβ was 0.4 °C; in assay [1] it was 4.1 °C; on ERRα, 0.2 °C. In addition, the values for the Kd (at ERRβ; in assay [1]) were 18000 nM and 722 nM, respectively.

With `O=c1c(-c2ccc(O)cc2)coc2cc(O)ccc12` [Daidzein], the ΔTm at 100 µM at ERRβ was 0.3 °C; in assay [1], -0.1 °C; at ERRα it was 0 °C; at ERβ (pH 8, read-out: ΔTm, thermal stabilization of ERβ), 8.9 °C; at ERα (setting [3]), 4.1 °C. Also, the “Interaction with / stabilization of ERRβ, in words” value on ERRβ (ThermoFluor) is given as “did not interact”. Moreover, the “Interaction with / stabilization of ERRγ, in words” value in assay [1] (ThermoFluor) is given as “did not interact”. The “Interaction with / stabilization of ERRα, in words” value at ERRα (ThermoFluor) was “did not interact”.

Turning to `CCCc1c(-c2ccc(O)cc2)nn(-c2ccc(O)cc2)c1-c1ccc(O)cc1` [PPT], the “ΔTm, thermal stabilization of ERRβ” value on ERRβ is −3.5 °C. In addition, the “ΔTm, thermal stabilization of ERRγ” value in assay [1] was −1.8 °C. For the same compound, the “ΔTm, thermal stabilization of ERRα” value on ERRα is −2.3 °C. Besides, the “ΔTm, thermal stabilization of ERβ” value at ERβ (setting [4]) is 9.5 °C. Besides, the Kd was 58.3 nM at ERβ and 38.7 nM on ERα (setting [6]). For the same compound, the “ΔTm, thermal stabilization of ERα” value on ERα (setting [5]) was 11.7 °C.

On to `CCN(CC)CCOc1ccc(C(=C(Cl)c2ccccc2)c2ccccc2)cc1` [clomiphene], for which the ΔTm at 100 µM at ERβ (setting [2]) worked out at 9.7 °C. Moreover, on ERβ, the Kd was 52.1 nM.

Take 4-bromocresol: the “ΔTm, thermal stabilization of ERRβ” value on ERRβ was determined as 0.5 °C. Also, the Kd on ERRβ (calculated at reference temperature 25 °C from ΔTm of Table II, ΔHu 155 kcal/mol) is 17200 nM; in assay [1] (calculated at reference temperature 25 °C from ΔTm of Table II, ΔHu 165 kcal/mol) it was 633 nM. The “ΔTm, thermal stabilization of ERRγ” value in assay [1] turned out to be 4.3 °C. The “ΔTm, thermal stabilization of ERRα” value at ERRα came out at 0.1 °C.

With `C[C@]12CC[C@@H]3c4ccc(O)cc4CC[C@H]3[C@@H]1CC[C@@H]2O` [17-β-estradiol], the “ΔTm, thermal stabilization of ERRβ” value at ERRβ was −0.1 °C. Moreover, the “ΔTm, thermal stabilization of ERRγ” value in assay [1] amounted to 0.6 °C.

Take `C[C@]12CC[C@@H]3c4ccc(O)cc4C[C@@H](CCCCCCCCC[S+]([O-])CCCC(F)(F)C(F)(F)F)[C@H]3[C@@H]1CC[C@@H]2O` (stereo partly drawn) [ICI-182780]: the shift in melting temperature (ΔTm) at 100 µM at ERRβ came to 0 °C; in assay [1], 0 °C; on ERRα, 0 °C; at ERβ (setting [2]), 16.7 °C; on ERα (setting [3]) it was 13.9 °C.

On to `C[C@]12CC[C@H]3[C@@H](CCC4=C[C@H](O)CC[C@@H]43)[C@@H]1CC[C@@H]2O` [4-estrene-3-α-17-β-diol], for which the ΔTm at 100 µM was -0.1 °C on ERRβ; -0.1 °C in assay [1]; 0 °C at ERRα; 7.7 °C on ERβ (setting [2]); 4.9 °C on ERα (pH 8, read-out: ΔTm, thermal stabilization of ERα). The Kd at ERβ was 157 nM; on ERα, 1270 nM.

As to `COc1cc2c(cc1O)CC[C@@H]1[C@@H]2CC[C@]2(C)[C@@H](O)CC[C@@H]12` [2-methoxy-estradiol], the “ΔTm, thermal stabilization of ERRβ” value at ERRβ is −0.1 °C. Further, the “ΔTm, thermal stabilization of ERRγ” value in assay [1] amounted to 0.0 °C. The “ΔTm, thermal stabilization of ERRα” value on ERRα came to 0.1 °C. The “ΔTm, thermal stabilization of ERβ” value at ERβ (setting [4]) stood at 2.9 °C. The Kd on ERβ was 2310 nM; on ERα (setting [6]), 2660 nM. Also, on ERα (setting [5]), the “ΔTm, thermal stabilization of ERα” value was found to be 3.5 °C.

As to `N#CC(Cc1ccc(O)cc1)c1ccc(O)cc1` (stereo not drawn) [DPN], the “ΔTm, thermal stabilization of ERRβ” value at ERRβ came out at 0.2 °C. The “ΔTm, thermal stabilization of ERRγ” value in assay [1] came out at 0.3 °C. In addition, the “ΔTm, thermal stabilization of ERRα” value on ERRα was −0.2 °C.

A word on the ΔTm: it is the change in melting temperature against a reference sample.
